From patent US20040077650A1, “Cannabinoid receptor ligands and uses thereof” (Pfizer Inc., priority 2002, published 2004)

Molecular target: T1, CB-1 receptor (Rattus norvegicus, UniProt P20272)
T1 construct: tissue Pel Freeze Biologicals, Rogers, Ark; host or cells: rat brain membrane homogenate
Assay: CB-1 receptor binding assay ([3H]SR141716A displacement)
Conditions: inhibition of [3H] SR141716A binding, rat brain tissue, 20° C. for 60 minutes
Procedure: The following assays were designed to detect compounds that inhibit the binding of [3H] SR141716A (selective CB-1 radiolabeled ligand) and [3H] 5-(1,1-dimethyl-heptyl)-2-[5-hydroxy-2-(3-hydroxy-propyl)-cyclohexyl]-phenol (CB-1/CB-2 radiolabeled ligand) to their respective receptors.
PelFreeze brains (available from Pel Freeze Biologicals, Rogers, Ark.) were cut up and placed in tissue preparation buffer (5 mM Tris HCl, pH=7.4 and 2 mM EDTA), polytroned at high speed and kept on ice for 15 minutes. The homogenate was then spun at 1,000×g for 5 minutes at 4° C. The supernatant was recovered and centrifuged at 100,000×G for 1 hour at 4° C. The pellet was then re-suspended in 25 ml of TME ([…] Tris, pH=7.4, 5 mM MgCl2, and 1 mM EDTA) per brain used. A protein assay was performed and 200 μl of tissue totaling 20 μg was added to the assay.
The test compounds were diluted in drug buffer (0.5% BSA, 10% DMSO and TME) and then 25 μl were added to a deep well polypropylene plate. [3H] SR141716A was diluted in a ligand buffer (0.5% BSA plus TME) and 25 μl were added to the plate. A BCA protein assay was used to determine the appropriate tissue concentration and then 200 μl of rat brain tissue at the appropriate concentration was added to the plate. […] In the morning the filters were counted on a Wallac Betaplate™ counter (available from PerkinElmer Life Sciences™, Boston, Mass.).

T1 sequence (P20272 whole entry): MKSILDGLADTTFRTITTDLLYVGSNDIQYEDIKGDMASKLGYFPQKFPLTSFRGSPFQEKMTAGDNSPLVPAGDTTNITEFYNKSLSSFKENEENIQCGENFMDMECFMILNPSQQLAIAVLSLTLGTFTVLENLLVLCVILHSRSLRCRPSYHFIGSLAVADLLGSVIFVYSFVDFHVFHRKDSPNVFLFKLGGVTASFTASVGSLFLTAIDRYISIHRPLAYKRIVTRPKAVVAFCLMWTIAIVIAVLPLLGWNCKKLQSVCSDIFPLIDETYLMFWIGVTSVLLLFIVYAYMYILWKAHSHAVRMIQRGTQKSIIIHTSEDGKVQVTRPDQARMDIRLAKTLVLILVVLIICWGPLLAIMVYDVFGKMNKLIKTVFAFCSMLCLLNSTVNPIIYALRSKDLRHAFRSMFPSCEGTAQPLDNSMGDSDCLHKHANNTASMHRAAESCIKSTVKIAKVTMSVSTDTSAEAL

binding affinity: 371 nM
SMILES: Cc1c(-c2ncn(C)c2-c2ccccc2)nn(-c2ccccc2Cl)c1-c1ccc(Cl)cc1 [Example 1B-13, 5-(4-Chloro-phenyl)-1-(2-chloro-phenyl)-4-methyl-3-(1-methyl-5-phenyl-1H-imidazol-4-yl)-1H-pyrazole]
